System: Melanoderm cultures
Test: Solvable Melanin Assay on Melanoderm cultures (3-D skin model)
Assay type: cell-based
Conditions: Melanoderm cultures fed every other day for 2 weeks, controls DMSO 1.292, untreated 1.259
Procedure: This experiment was carried out using Melanoderm cultures. Luminescence was measured using a chromameter to assay the degree of melanization of a 3-D skin model.
Method for Melanoderm Cultures
Melanoderm cultures were obtained from MatTek Corporation, Ashland, Mass. The Melanoderm was maintained according to the manufacturer's instructions. The basal media used for the maintenance of the Melanoderm cultures was DMEM supplemented with unspecified quantities of Epidermal growth factor, Insulin, Hydrocortisone, and proprietary epidermal differentiation compounds, in addition to anti-fungal and antibiotics.
For the long term maintenance of the Melanoderms, the basal media was supplemented with both bFGF and a-MSH, compounds which are stimulators of melanocyte growth and melanogenesis. The cultures were fed every other day for a total of 2 weeks—fresh active preparations, prepared in DMSO or culture media, were also applied to the Melanoderms when feeding was performed. Each treatment condition was done in duplicate and digital photographs were taken of the Melanoderm cultures to assess overall pigmentation. As well, microscopic images of the Melanoderms were done to assess the cell viability of the keratinocytes and melanocytes. For further evidence that the treatments were/not cytotoxic, an LDH assay (Promega, Madison, Wis.) was performed on the supernatants from 24 hour post-treatment cultures.
To prepare tissues for assay:
After treatment, tissues are usually frozen until completion of the experiment. Thaw tissues, a few at a time and place in D-PBS to remove excess phenol red from the culture medium and residual test article. Remove a single tissue from the insert. Blot dry and place in 1.7 ml. microfuge tube. Repeat for all samples. Add 250 ul Solvable™ (Tissue and Gel Solubilizer 0.5 M—Packard BioScience Co. Catalogue No. 6NE9100 (NEF910)). Close the tube and make sure that the tissue is completely submerged. Incubate at 60° C. overnight along with standards. In the morning, vortex the samples. Sometimes thick tissues will require additional time to complete the solution process. To prepare standard: Dissolve Melanin (Sigma cat. M 8631) in Solvable at 1 mg/ml. The solution may be warmed gently for 15 minutes at 37° C. Store solution in dark. To prepare standard curve: Prepare dilutions from the standard containing 0 ug to 250 ug of melanin in a total of 250 ul Solvable. Incubate dilutions along with samples. To read assay: Cool samples and standards. Centrifuge at 13,000 rpm for 5 minutes to pellet. Fill microwell plate (C-96) with 200 ul each of samples and standards. There is some foaming of samples when pipetted. Blow gently across the samples to break bubbles prior to reading the plate. Read plate at […].

O=c1oc2cc(O)ccc2cc1-c1ccccc1 [7-hydroxy-3-phenylcoumarin]
OD = 490 nm (melanin content) (25 uM): 1.674 | OD = 490 nm (melanin content) (50 uM): 1.339 | OD = 490 nm (melanin content) (75 uM): 0.849 | OD = 490 nm (melanin content) (100 uM): 0.293
